Test results: patent US20250090681A1, “NEODEGRADER CONJUGATES” (Orum Therapeutics, Inc., priority 2021, published 2025)

Target: T1, GSPT1 (Homo sapiens, UniProt P15170+Q96SW2)
T1 construct: Whole cell lysates were prepared from MV4-11 CD33-positive AML cells; endogenous in cells; host or cells: MV4-11 (CD33-positive AML cells)
Test: GSPT1 degradation by western blot in MV4-11 cells
Format: cell-based
Conditions: FIG. 8
Excerpt: GSPT1 was probed by commercially available rabbit-anti-GSPT1 antibody (Abcam) followed by anti-rabbit HRP conjugated secondary antibody (Cell Signaling Technology) and detected by chemiluminescent substrate (ThermoFisher). PVDF membrane was then stripped and re-probed with beta-Actin-HRP conjugated antibody (Cell Signaling Technology).

T1 sequence (P15170 whole entry): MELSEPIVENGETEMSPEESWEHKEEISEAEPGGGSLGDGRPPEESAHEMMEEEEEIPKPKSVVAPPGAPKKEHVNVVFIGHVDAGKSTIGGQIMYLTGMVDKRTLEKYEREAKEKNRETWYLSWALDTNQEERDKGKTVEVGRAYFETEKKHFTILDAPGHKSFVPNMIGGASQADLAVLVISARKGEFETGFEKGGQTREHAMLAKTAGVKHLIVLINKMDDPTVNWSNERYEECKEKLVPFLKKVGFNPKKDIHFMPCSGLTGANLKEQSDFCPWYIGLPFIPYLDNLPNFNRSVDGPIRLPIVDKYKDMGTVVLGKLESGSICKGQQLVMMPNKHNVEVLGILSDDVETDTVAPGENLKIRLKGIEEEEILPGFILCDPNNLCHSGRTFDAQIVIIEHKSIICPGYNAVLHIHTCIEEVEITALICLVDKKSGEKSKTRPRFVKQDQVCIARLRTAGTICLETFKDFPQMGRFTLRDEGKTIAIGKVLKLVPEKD
T1 sequence (Q96SW2 whole entry): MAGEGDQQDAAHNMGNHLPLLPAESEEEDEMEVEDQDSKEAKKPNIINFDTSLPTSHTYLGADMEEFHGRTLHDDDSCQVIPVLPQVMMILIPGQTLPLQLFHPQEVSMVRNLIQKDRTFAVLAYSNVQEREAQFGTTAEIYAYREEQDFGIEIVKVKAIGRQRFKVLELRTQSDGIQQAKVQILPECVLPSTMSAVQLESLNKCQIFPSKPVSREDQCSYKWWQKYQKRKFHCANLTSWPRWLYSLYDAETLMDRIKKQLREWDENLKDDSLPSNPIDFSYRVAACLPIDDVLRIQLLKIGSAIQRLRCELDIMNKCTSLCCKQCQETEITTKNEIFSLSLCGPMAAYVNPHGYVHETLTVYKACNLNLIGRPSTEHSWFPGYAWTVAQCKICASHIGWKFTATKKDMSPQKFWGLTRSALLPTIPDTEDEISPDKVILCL
T1 sequence (Q16531 whole entry partner): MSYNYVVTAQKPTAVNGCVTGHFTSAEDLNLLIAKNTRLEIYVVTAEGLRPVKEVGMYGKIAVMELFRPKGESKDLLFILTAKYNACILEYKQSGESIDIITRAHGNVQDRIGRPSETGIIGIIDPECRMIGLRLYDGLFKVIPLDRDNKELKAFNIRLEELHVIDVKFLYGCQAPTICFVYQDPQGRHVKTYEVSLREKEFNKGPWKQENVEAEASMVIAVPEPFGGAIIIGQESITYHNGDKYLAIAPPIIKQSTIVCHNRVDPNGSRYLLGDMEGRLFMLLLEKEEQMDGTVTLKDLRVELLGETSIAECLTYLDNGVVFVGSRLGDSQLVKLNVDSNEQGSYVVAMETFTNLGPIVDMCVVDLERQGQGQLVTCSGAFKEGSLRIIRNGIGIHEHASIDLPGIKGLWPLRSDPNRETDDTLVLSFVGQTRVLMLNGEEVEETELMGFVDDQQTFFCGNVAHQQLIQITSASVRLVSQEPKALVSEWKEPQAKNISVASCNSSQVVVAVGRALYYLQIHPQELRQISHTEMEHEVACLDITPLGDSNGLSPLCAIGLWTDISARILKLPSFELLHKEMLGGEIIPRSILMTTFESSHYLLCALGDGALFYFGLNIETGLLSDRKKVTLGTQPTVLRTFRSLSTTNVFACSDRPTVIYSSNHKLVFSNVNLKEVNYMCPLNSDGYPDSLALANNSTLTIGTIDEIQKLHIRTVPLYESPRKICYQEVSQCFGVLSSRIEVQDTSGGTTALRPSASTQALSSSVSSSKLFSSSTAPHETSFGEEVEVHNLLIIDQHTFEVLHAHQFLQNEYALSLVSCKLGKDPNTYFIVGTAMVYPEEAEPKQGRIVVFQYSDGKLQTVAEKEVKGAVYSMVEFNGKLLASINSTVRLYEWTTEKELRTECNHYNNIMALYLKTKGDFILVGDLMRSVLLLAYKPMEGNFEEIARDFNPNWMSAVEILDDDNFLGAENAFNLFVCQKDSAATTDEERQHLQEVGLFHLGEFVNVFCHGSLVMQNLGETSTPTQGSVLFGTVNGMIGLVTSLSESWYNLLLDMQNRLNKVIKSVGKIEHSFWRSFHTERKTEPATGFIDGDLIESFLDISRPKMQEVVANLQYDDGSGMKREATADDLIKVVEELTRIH

For `CNCCOCCc1ccc(NC(=O)NCc2ccc3c(c2)CN(C2CCC(=O)NC2=O)C3=O)cc1Cl` (centres unmarked) [neoDegrader P1, 1-(3-chloro-4-[2-[2-(methylamino)ethoxy]ethyl]phenyl)-3-[[2-(2,6-dioxopiperidin-3-yl)-1-oxo-3H-isoindol-5-yl]methyl]urea], the “durability of GSPT1 depletion” value (MV4-11 cells, 6, 12 and 18 hours) was “transient depletion” and the “decreases in GSPT1 levels” value (MV4-11 cells, as short as 6 hours post-dosing) was “dose-dependent decreases”.
